Data reported in PMC11061835, “Elucidating the Mechanism of Metabolism of Cannabichromene by Human Cytochrome P450s” (Journal of Natural Products, 2024).
Values joined by “and” are separate entries in the source; they are usually repeats but may differ in a detail not shown here. Equal values may be shown once.

Columns and labels:
[1] = tested on: BV2 microglial cells, stimulated with lipopolysaccharide (LPS); experiment: IL-6 ELISA in LPS-stimulated BV2 cells; format: cell-based, mouse; settings: 0.1, 1.0, 2.5, 5.0 μM, LPS-stimulated
Procedure: BV2 cells were a gift from Dr. Bob McCusker, University of Illinois. They were cultured and maintained at 37 °C in a humidified atmosphere of 95% air and 5% CO2 in high-glucose Dulbecco’s modified Eagle’s (DMEM) medium (Cat No. 10-013-CV, Corning Life Sciences), supplemented with 5% heat-inactivated fetal bovine serum (FBS), streptomycin (100 μg/mL), and penicillin (100 units/mL). Stocks of all the minor cannabinoids were made in ethanol and stored at −80 °C and diluted as required before cell treatment. A final concentration of ethanol was maintained at 0.1% in the cell culture experiments.
BV-2 cells were plated at a density of 50 000 cells/well in a 24-well plate at 37 °C under controlled conditions. Cells were pretreated with the minor cannabinoids at various concentrations (0.1, 1.0, 2.5, 5.0 μM) for 4 h and then stimulated with LPS for 24 h. The culture medium was removed and saved for the determination of nitric oxide production through Cayman’s Griess assay. IL-6, TNFα, and Arginase 1 production was also determined utilizing collected medium. For the Greiss assay, in a 96-well plate, 100 μL of culture medium was used, and 50 μL of both Greiss reagent-1 and Greiss reagent-2 was added and incubated for 10 min. The absorbance was measured at 540 nm using a plate reader (SpectraMax iD5). The quantification was done using a calibration curve that was generated using the sodium nitrite standard obtained from Cayman Chemicals.
BV-2 cells were pretreated with the minor cannabinoids as described previously for 4 h in serum media (reduced to 5% FBS). Cells were stimulated with LPS (25 ng/mL in growth media) and allowed to incubate for 24 h. The culture medium was collected, and the concentrations of IL-6 (Cayman Chemicals), TNFα (ThermoFisher Scientific), and arginase 1 (ThermoFisher Scientific) cytokine expression were determined using specific monoclonal antibodies by ELISA kits as per manufacturer’s instructions.

CYP2C9 with CPR = molecular target: T1, CYP2C9 with CPR (Homo sapiens, UniProt P11712); experiment: NADPH activity assay, CYP2C9 with CPR; format: biochemical; settings: CYP2C9, CBC 50 μM vs substrate-free
T1 construct: His-tag; made in house; host or cells: E. coli DH-5α with pTGro7 plasmid (CYP)
T1 sequence (P11712 whole entry): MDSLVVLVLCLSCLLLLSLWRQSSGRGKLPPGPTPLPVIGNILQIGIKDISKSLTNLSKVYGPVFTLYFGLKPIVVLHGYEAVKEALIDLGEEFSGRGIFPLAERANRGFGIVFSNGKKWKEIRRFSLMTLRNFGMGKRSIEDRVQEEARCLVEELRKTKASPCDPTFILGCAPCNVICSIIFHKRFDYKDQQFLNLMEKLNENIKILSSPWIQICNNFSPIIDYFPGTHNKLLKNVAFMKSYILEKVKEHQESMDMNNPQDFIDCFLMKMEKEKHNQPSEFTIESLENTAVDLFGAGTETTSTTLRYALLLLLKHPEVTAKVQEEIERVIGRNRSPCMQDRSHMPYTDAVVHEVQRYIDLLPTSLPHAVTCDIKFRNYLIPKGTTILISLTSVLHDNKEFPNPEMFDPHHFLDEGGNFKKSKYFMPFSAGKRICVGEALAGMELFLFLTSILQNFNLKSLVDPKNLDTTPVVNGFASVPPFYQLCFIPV
T1 sequence (P16435 whole entry partner): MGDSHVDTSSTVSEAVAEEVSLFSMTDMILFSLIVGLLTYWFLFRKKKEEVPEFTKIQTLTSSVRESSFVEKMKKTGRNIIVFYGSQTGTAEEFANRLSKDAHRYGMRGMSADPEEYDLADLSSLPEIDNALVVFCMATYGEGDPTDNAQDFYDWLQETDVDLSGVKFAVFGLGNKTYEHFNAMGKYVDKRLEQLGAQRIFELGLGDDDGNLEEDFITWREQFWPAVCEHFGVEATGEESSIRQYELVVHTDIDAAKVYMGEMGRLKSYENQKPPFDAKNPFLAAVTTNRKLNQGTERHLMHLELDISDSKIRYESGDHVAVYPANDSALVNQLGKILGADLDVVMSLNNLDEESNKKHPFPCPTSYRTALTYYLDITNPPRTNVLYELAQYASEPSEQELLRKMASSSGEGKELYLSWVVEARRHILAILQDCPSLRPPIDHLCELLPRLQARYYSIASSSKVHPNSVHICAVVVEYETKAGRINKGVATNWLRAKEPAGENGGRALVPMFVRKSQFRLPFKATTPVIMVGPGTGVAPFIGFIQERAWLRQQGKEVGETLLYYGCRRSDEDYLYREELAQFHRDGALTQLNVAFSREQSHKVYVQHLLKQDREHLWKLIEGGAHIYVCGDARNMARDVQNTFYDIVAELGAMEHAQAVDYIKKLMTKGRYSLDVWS
Procedure: CYP-mediated NADPH oxidation was measured using kinetics mode in a Cary 300 UV–vis spectrometer (Agilent Technologies). 0.2 μM (final concentration) of CYP was taken in 0.1 M potassium phosphate buffer (pH 7.4) and incubated with 0.6 μM (final concentration) of CPR for 5 min with a reaction volume of 400 μL. The reaction was initiated with 200 μM of NADPH, and the absorption change was monitored over 10 min at 340 nm. The rate of NADPH consumption (or NADPH to NADP^+ conversion) was calculated by taking the molar extinction coefficient as 6.22 mM^–1 cm^–1 at 340 nm. To estimate the change in NADPH oxidation in the presence of CBC, both CYP and CPR were further incubated using CBC (final concentration 50 μM) for 5 min followed by measuring the change in absorbance at 340 nm as discussed earlier.

CYP3A4 = CYP3A4 (Homo sapiens, UniProt P08684); experiment: Spectroscopic titration (Soret shift), CYP3A4; format: binding; set-up: His-tag; made in house; host or cells: E. coli DH-5α with pTGro7 plasmid; settings: CYP3A4, absence of CPR
Chain of CYP3A4 (P08684 whole entry): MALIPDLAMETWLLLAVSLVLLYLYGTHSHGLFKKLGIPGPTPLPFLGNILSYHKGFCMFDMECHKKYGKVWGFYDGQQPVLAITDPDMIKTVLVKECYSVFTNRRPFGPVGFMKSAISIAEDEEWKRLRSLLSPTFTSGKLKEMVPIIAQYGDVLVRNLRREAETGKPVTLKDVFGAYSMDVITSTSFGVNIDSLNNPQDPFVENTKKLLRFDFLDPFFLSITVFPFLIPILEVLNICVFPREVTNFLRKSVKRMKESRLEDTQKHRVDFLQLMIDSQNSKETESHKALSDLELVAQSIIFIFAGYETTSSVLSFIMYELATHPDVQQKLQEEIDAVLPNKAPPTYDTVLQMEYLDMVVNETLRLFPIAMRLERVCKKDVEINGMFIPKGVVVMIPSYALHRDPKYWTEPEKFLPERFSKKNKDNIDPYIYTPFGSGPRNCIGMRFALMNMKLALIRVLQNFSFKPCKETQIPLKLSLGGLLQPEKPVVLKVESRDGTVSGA
Procedure: CBC binding to various CYPs was determined by analyzing the Soret shift from ∼417 to ∼390 nm. CBC (stock 10 mM) was dissolved in ethanol and titrated with different CYPs at room temperature. Buffer-exchanged CYP2J2, CYP2D6, CYP3A4, and CYP2C8 (concentrations of proteins were kept between 4 and 5 μM) were dissolved in 0.1 M phosphate buffer (pH = 7.4), and initial spectra were recorded from 200 to 800 nm with a prominent peak at 417 nm. The concentration of CBC was varied from 0 to 100 μM keeping the final concentration of substrate in EtOH not more than 1% in cuvette. 0–4 μL of stock CBC was added using a Hamilton syringe in both the sample and blank cuvettes. The mixture was incubated for 5 min at 37 °C, and absorbance spectra were recorded using a Cary Bio 300 UV–vis spectrophotometer (Agilent Technologies, Santa Clara, CA). To eliminate the background absorbance, we derived the final spectra by […].

CCCCCc1cc(O)c2c(c1)OC(C)(CCC=C(C)C)C=C2 (stereo not shown) [CBC, Cannabichromene]
effect on IL-6 levels [1]: Concentration dependent reduction
percentage increase of NADPH consumption in the presence of CBC (CYP2C9 with CPR): ~90%
ΔAmax (spin state change due to heme perturbation) (CYP3A4): 0.11 ± 0.00 and ~0.11
Kd (CYP3A4; read-out: Kd(app)): 9.57 µM and ~9.5 µM
